Values quoted from earlier work, collected in patent publication EP1048712A1, “A process of treating fabrics with a laundry detergent additive tablet” (THE PROCTER & GAMBLE COMPANY, priority 1999, dated 2000).

details: 25°C

Point of comparison: `N#CS` [NCS-], “base hydrolysis rates (kOH)” value 0.0005 M⁻¹ s⁻¹. Against it:
- CC(=O)O [acetate] — 1.9-fold higher, 0.00096 M⁻¹ s⁻¹
- O=CO [formate] — within 1.5-fold, 0.00058 M⁻¹ s⁻¹
- oxalate — 2-fold lower, 0.00025 M⁻¹ s⁻¹
